One experiment concerns growth hormone. Briefly: in vitro test for the inhibition of growth hormone release, cultured rat pituitary cells. Format: cell-based. The settings on record: multiples or fractions of the effect of somatostatin (=1), fiducial limits in parentheses, 4 hours incubation. The procedure:
The instant cyclic hexapeptide analogs of somatostatin are tested and compared with the effects of somatostatin in an in vitro test for the inhibition of growth hormone. The test is described as follows:
"Rat pituitaries were isolated according to the procedures of Vale and Grant "In vitro Pituitary Hormone Secretion Assay for Hypophysiotropic Substances" in Methods in Enzymology, Vol. XXXVII, eds. O'Malley, B.W. and Hardman, J.G. (Academic Press, Inc., New York) pp. 5-93 (1975).
After 4 days in culture, the cells were washed and incubated for 4 hours in Dulbecco-modified Eagle's medium in the presence or absence of graded doses of each analog or somatostatin. The medium was then collected for subsequent growth hormone determinatin by a double antibody radioimmunoassay for rat growth hormone."

The next experiment deals with portal vein insulin. Briefly: decrease of portal vein insulin in anesthetized rats. The experiment is classed as in vivo, rat. The settings on record: multiples or fractions of the effect of somatostatin (=1), fiducial limits in parentheses, external jugular vein, portal blood after 5 minutes. Here is the method: (§1) Analogs of somatostatin were compared to somatostatin in their ability to decrease the levels of portal vein glucagon and insulin in anesthetized rates. Male Sprague-Dawley rats (Charles River CD) weighing 160-200 g were anesthetized with urethane (150 mg/100 g of body weight; Aldrich). Saline or peptides were administered via the external jugular vein. After 5 minutes, the portal vein was exposed, and blood was collected via syringe containing 3 mg of EDTA and placed in chilled tubes containing 100 μl of Trasylol (FBA Pharmaceuticals) for subsequent hormone analysis. Plasma levels of glucagon were determined by the method of Faloona and Unger, Methods of Hormone Radioimmunoassay, Jaffe and Behrman (Eds), Academic Press, New York, Vol. II, pp. 257-527 (1976), utilizing glucagon antisera 30K obtained from R. Unger (Dallas, TX). Plasma levels of insulin were determined by a modification of the procedure of Herbert et al., J. Clin. Endocrinol. Metab., 25, 1375-1384 (1965).

The subject of another experiment is portal vein glucagon. Put plainly: decrease of portal vein glucagon in anesthetized rats. The settings on record: multiples or fractions of the effect of somatostatin (=1), fiducial limits in parentheses, external jugular vein, portal blood after 5 minutes. The experiment is classed as in vivo, rat. The procedure: as §1
Experiment [1] concerns pentagastrin evoked gastric secretion. Put plainly: inhibition of pentagastrin evoked gastric secretion in the chronic fistula dog. The experiment is classed as in vivo. The settings on record: Dose 0.8 μg/ml./min., infusion 0-60 min., relative to placebo trial; for Gastric Secretion & Inhibition, Acid Concentration 0-30 / Gastric Secretion & Inhibition, Vol. 0-30: 0-30 min; for Gastric Secretion & Inhibition, Acid Concentration 30-60 / Gastric Secretion & Inhibition, Vol. 30-60: 30-60 min; for Gastric Secretion & Inhibition, Acid Concentration 60-90 / Gastric Secretion & Inhibition, Vol. 60-90: 60-90 min; for Gastric Secretion & Inhibition, Acid Concentration 90-120 / Gastric Secretion & Inhibition, Vol. 90-120: 90-120 min. The procedure:
The effects of the instant cyclichexapeptide analogs of somatostatin are determined by the following procedure.
Compounds were tested for their ability to inhibit pentagastrin evoked gastric secretion in the chronic fistula dog. Female beagle dogs with a chronic gastric fistula were given pentagastrin (2.5 μg./kg./hour, i.v. from -60 to 120 min.) and gastric outputs were collected via the fistula cannula. Samples were analyzed at 30 minute intervals for volume (Ml.) and titratable acid (mEq/L) (Titration to pH 7 with 0.01N NaOH); total acid output (mEq) was calculated as the production of output volume and acid concentration. Test compounds were infused at a constant rate from 0 to 60 minutes. Data have been expressed as percent change of total acid output relative to a placebo trial in the same animals.

SMILES strings stand for the structures. Square brackets hold non-standard residues; d marks the D form. Peptide text beside a SMILES is read from it. NMeF = CN[C@@H](Cc1ccccc1)C(=O)O; NMeK = CN[C@@H](CCCCN)C(=O)O; dNMeK = CN[C@H](CCCCN)C(=O)O

Consider 5 compounds from patent publication US4486415A, “Cyclic hexapeptide somatostatin analogs” (Merck & Co., Inc., priority 1983, dated 1984).

With `C[C@@H](O)[C@@H]1NC(=O)[C@@H](CCCCN)N(C)C(=O)[C@H](Cc2c[nH]c3ccccc23)NC(=O)[C@H](Cc2ccccc2)NC(=O)[C@@H]2CCCN2C(=O)[C@H](Cc2ccccc2)NC1=O` [Cyclo(Pro--Phe--L-Trp--D-N--Me--Lys--Thr--Phe)] (cyclo(FPFW[dNMeK]T)), in the experiment with growth hormone, the “Growth Hormone Release Inhibition” value is 0.05(0.04,0.07). In the experiment with portal vein insulin, the “Insulin Inhibition” value is listed as 0.07.
As for `C[C@@H](O)[C@@H]1NC(=O)[C@H](CCCCN)N(C)C(=O)[C@H](Cc2c[nH]c3ccccc23)NC(=O)[C@H](Cc2ccccc2)NC(=O)[C@@H]2CCCN2C(=O)[C@H](Cc2ccccc2)NC1=O` [Cyclo-(Pro-Phe-L-Trp-N-Me-Lys-Thr-Phe)] (cyclo(FPFW[NMeK]T)), the “Growth Hormone Release Inhibition” value in the experiment with growth hormone is recorded as 0.1(0.09,0.2). The “Insulin Inhibition” value in the experiment on portal vein insulin is recorded as 0.3(0.1,0.7). Moreover, in the experiment on portal vein glucagon, the “Glucagon Inhibition” value was determined as 0.2.
For the compound `C[C@@H](O)[C@@H]1NC(=O)[C@H](CCCCN)N(C)C(=O)[C@@H](Cc2c[nH]c3ccccc23)NC(=O)[C@H](Cc2ccccc2)NC(=O)[C@@H]2CCCN2C(=O)[C@H](Cc2ccccc2)NC1=O` [Cyclo(D-Trp-N-Me-Lys-Thr-Phe-Pro-Phe)] (cyclo(FPF[dW][NMeK]T)), the “Growth Hormone Release Inhibition” value with growth hormone is 1.6(0.7,3.4). Also, the “Insulin Inhibition” value in the experiment with portal vein insulin is listed as 0.5(0.1,1.8). For the same compound, the “Glucagon Inhibition” value with portal vein glucagon is “Active”. Also, in experiment [1], the “Gastric Secretion & Inhibition, Acid Concentration 0-30” value turned out to be 9%; the “Gastric Secretion & Inhibition, Vol. 0-30” value is 78%; the “Gastric Secretion & Inhibition, Acid Concentration 30-60” value is 49%; the “Gastric Secretion & Inhibition, Vol. 30-60” value was 82%. In experiment [1], the “Gastric Secretion & Inhibition, Acid Concentration 60-90” value stood at 43%; the “Gastric Secretion & Inhibition, Vol. 60-90” value is on record as 61%; the “Gastric Secretion & Inhibition, Acid Concentration 90-120” value is reported as 32%; the “Gastric Secretion & Inhibition, Vol. 90-120” value is reported as 60%.
Regarding `C[C@@H](O)[C@@H]1NC(=O)[C@@H](CCCCN)N(C)C(=O)[C@@H](Cc2c[nH]c3ccccc23)NC(=O)[C@H](Cc2ccccc2)NC(=O)[C@@H]2CCCN2C(=O)[C@H](Cc2ccccc2)NC1=O` [Cyclo-(Pro-Phe-D-Trp-N-Me-D-Lys-Thr-Phe)] (cyclo(FPF[dW][dNMeK]T)), the “Growth Hormone Release Inhibition” value in the experiment on growth hormone is given as 1.5(1.2,1.9). Besides, the “Insulin Inhibition” value in the experiment with portal vein insulin is reported as 0.4(0.01,1.9). In addition, the “Glucagon Inhibition” value in the experiment with portal vein glucagon stood at 0.4. In addition, in experiment [1], the “Gastric Secretion & Inhibition, Acid Concentration 0-30” value came out at 44%; the “Gastric Secretion & Inhibition, Vol. 0-30” value was 82%; the “Gastric Secretion & Inhibition, Acid Concentration 30-60” value amounted to 51%; the “Gastric Secretion & Inhibition, Vol. 30-60” value turned out to be 89%. Further, in experiment [1], the “Gastric Secretion & Inhibition, Acid Concentration 60-90” value came out at 6%; the “Gastric Secretion & Inhibition, Vol. 60-90” value is on record as 49%; the “Gastric Secretion & Inhibition, Acid Concentration 90-120” value is given as 0%; the “Gastric Secretion & Inhibition, Vol. 90-120” value is 60%.
With `C[C@@H](O)[C@@H]1NC(=O)[C@H](CCCCN)NC(=O)[C@@H](Cc2c[nH]c3ccccc23)NC(=O)[C@H](Cc2ccccc2)NC(=O)[C@@H]2CCCN2C(=O)[C@H](Cc2ccccc2)N(C)C1=O` [Cyclo(D-Trp-Lys-Thr-N-Me-Phe-Pro-Phe)] (cyclo(F[dW]KT[NMeF]P)), in the experiment with growth hormone, the “Growth Hormone Release Inhibition” value is 0.53(0.34,0.82). Moreover, the “Insulin Inhibition” value in the experiment with portal vein insulin is reported as 1.1(0.6,1.7). In addition, the “Glucagon Inhibition” value in the experiment on portal vein glucagon was 2.0.
